Test results reported in PubChem BioAssay (NCI).
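48-hour exposure; five concentrations; linearly interpolated endpoints. Here, GI50 denotes the concentration required for 50% inhibition of growth. The concentration for full growth arrest is given as TGI.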

Assays:
Assay in all cases: inhibition of tumour cell growth, NCI panel, 48 h
A498 renal = system: A498 renal
ACHN renal = system: ACHN renal
TK-10 renal = system: TK-10 renal
OVCAR-3 ovarian = system: OVCAR-3 ovarian
OVCAR-4 ovarian = system: OVCAR-4 ovarian
M14 melanoma = system: M14 melanoma
SW-620 colon = system: SW-620 colon
HL-60(TB) leukemia = system: HL-60(TB) leukemia
SF-268 CNS = system: SF-268 CNS
NCI-H522 lung = system: NCI-H522 lung
BT-549 breast = system: BT-549 breast
MDA-MB-435 = system: MDA-MB-435
EKVX NSCLC = system: EKVX NSCLC
786-0 renal = system: 786-0 renal
PC-3 prostate = system: PC-3 prostate
DU-145 prostate = system: DU-145 prostate
NCI/ADR-RES ovarian = system: NCI/ADR-RES ovarian
HCT-116 colon = system: HCT-116 colon
UACC-257 melanoma = system: UACC-257 melanoma
MDA-MB-231 breast = system: MDA-MB-231 breast
OVCAR-5 ovarian = system: OVCAR-5 ovarian
RXF 393 renal = system: RXF 393 renal
U251 CNS = system: U251 CNS
SK-MEL-5 melanoma = system: SK-MEL-5 melanoma
HCT-15 colon = system: HCT-15 colon
CAKI-1 renal = system: CAKI-1 renal
K-562 leukemia = system: K-562 leukemia
LOX IMVI melanoma = system: LOX IMVI melanoma
NCI-H460 lung = system: NCI-H460 lung
HCC-2998 colon = system: HCC-2998 colon
A549 NSCLC = system: A549 NSCLC
HOP-62 NSCLC = system: HOP-62 NSCLC
MOLT-4 leukemia = system: MOLT-4 leukemia
OVCAR-8 ovarian = system: OVCAR-8 ovarian
SR leukemia = system: SR leukemia
KM12 colon = system: KM12 colon
IGROV1 ovarian = system: IGROV1 ovarian
MALME-3M melanoma = system: MALME-3M melanoma
NCI-H23 lung = system: NCI-H23 lung
SK-MEL-2 melanoma = system: SK-MEL-2 melanoma
SF-295 CNS = system: SF-295 CNS
UO-31 renal = system: UO-31 renal
HS 578T breast = system: HS 578T breast
MCF7 breast = system: MCF7 breast
HOP-92 NSCLC = system: HOP-92 NSCLC
CCRF-CEM leukemia = system: CCRF-CEM leukemia
RPMI-8226 leukemia = system: RPMI-8226 leukemia
UACC-62 melanoma = system: UACC-62 melanoma
SF-539 CNS = system: SF-539 CNS
NCI-H226 lung = system: NCI-H226 lung

For `O=C(CSC(c1ccccc1)c1ccccc1)N/N=C/c1cccc(Cl)c1`, the GI50 (A498 renal) was 14.9 µM, the TGI (A498 renal) was 29 µM and the GI50 (ACHN renal) was 13.7 µM. The TGI (ACHN renal) was 26.6 µM, the GI50 (TK-10 renal) was 19.2 µM and the TGI (TK-10 renal) was 34.9 µM. The GI50 (OVCAR-3 ovarian) was 21.4 µM, the TGI (OVCAR-3 ovarian) was 38.9 µM and the GI50 (OVCAR-4 ovarian) was 15 µM. For the same compound, the TGI (OVCAR-4 ovarian) was 30.8 µM, the GI50 (M14 melanoma) was 15.3 µM and the TGI (M14 melanoma) was 29 µM. It also gave a GI50 (SW-620 colon) of 15 µM, a TGI (SW-620 colon) of 29.2 µM and a GI50 (HL-60(TB) leukemia) of 13.8 µM. The TGI (HL-60(TB) leukemia) was 33.9 µM, the GI50 (SF-268 CNS) was 17.5 µM and the TGI (SF-268 CNS) was 35 µM. For the same compound, the GI50 (NCI-H522 lung) was 10.1 µM, the TGI (NCI-H522 lung) was 23.7 µM and the GI50 (BT-549 breast) was 17.9 µM. The TGI (BT-549 breast) was 32.2 µM, the GI50 (MDA-MB-435) was 22.5 µM and the TGI (MDA-MB-435) was 43.7 µM. It also gave a GI50 (EKVX NSCLC) of 16.3 µM, a TGI (EKVX NSCLC) of 35.9 µM and a GI50 (786-0 renal) of 17.3 µM. It also gave a TGI (786-0 renal) of 32.7 µM, a GI50 (PC-3 prostate) of 19.4 µM and a TGI (PC-3 prostate) of 35.7 µM. The GI50 (DU-145 prostate) was 16.4 µM, the TGI (DU-145 prostate) was 30 µM and the GI50 (NCI/ADR-RES ovarian) was 14.3 µM. It also gave a TGI (NCI/ADR-RES ovarian) of 31.8 µM, a GI50 (HCT-116 colon) of 15.7 µM and a TGI (HCT-116 colon) of 29.1 µM. For the same compound, the GI50 (UACC-257 melanoma) was 14.6 µM, the TGI (UACC-257 melanoma) was 32.1 µM and the GI50 (MDA-MB-231 breast) was 14.4 µM. For the same compound, the TGI (MDA-MB-231 breast) was 28.6 µM, the GI50 (OVCAR-5 ovarian) was 17.5 µM and the TGI (OVCAR-5 ovarian) was 33.8 µM. The GI50 (RXF 393 renal) was 13.9 µM, the TGI (RXF 393 renal) was 29.5 µM and the GI50 (U251 CNS) was 17.7 µM. For the same compound, the TGI (U251 CNS) was 31.5 µM, the GI50 (SK-MEL-5 melanoma) was 11.4 µM and the TGI (SK-MEL-5 melanoma) was 23.7 µM. The GI50 (HCT-15 colon) was 19.6 µM, the TGI (HCT-15 colon) was 38.6 µM and the GI50 (CAKI-1 renal) was 23.4 µM. For the same compound, the TGI (CAKI-1 renal) was 52.5 µM, the GI50 (K-562 leukemia) was 21.6 µM and the TGI (K-562 leukemia) was 41.9 µM. It also gave a GI50 (LOX IMVI melanoma) of 17.9 µM, a TGI (LOX IMVI melanoma) of 33.3 µM and a GI50 (NCI-H460 lung) of 17.6 µM. The TGI (NCI-H460 lung) was 34.8 µM, the GI50 (HCC-2998 colon) was 18.6 µM and the TGI (HCC-2998 colon) was 32.6 µM. It also gave a GI50 (A549 NSCLC) of 15.1 µM, a TGI (A549 NSCLC) of 40.1 µM and a GI50 (HOP-62 NSCLC) of 17.3 µM. For the same compound, the TGI (HOP-62 NSCLC) was 31.6 µM, the GI50 (MOLT-4 leukemia) was 19.1 µM and the TGI (MOLT-4 leukemia) was 43.2 µM. The GI50 (OVCAR-8 ovarian) was 17.6 µM, the TGI (OVCAR-8 ovarian) was 39.6 µM and the GI50 (SR leukemia) was 17.7 µM. The TGI (SR leukemia) was 38.3 µM, the GI50 (KM12 colon) was 17.3 µM and the TGI (KM12 colon) was 33.2 µM. It also gave a GI50 (IGROV1 ovarian) of 15.2 µM, a TGI (IGROV1 ovarian) of 28.8 µM and a GI50 (MALME-3M melanoma) of 13 µM. The TGI (MALME-3M melanoma) was 26.1 µM, the GI50 (NCI-H23 lung) was 14.9 µM and the TGI (NCI-H23 lung) was 29 µM. The GI50 (SK-MEL-2 melanoma) was 15.7 µM, the TGI (SK-MEL-2 melanoma) was 30.1 µM and the GI50 (SF-295 CNS) was 22.9 µM. It also gave a TGI (SF-295 CNS) of 44.8 µM, a GI50 (UO-31 renal) of 11.7 µM and a TGI (UO-31 renal) of 23.9 µM. For the same compound, the GI50 (HS 578T breast) was 15.7 µM, the TGI (HS 578T breast) was 38.2 µM and the GI50 (MCF7 breast) was 19.1 µM. For the same compound, the TGI (MCF7 breast) was 38.4 µM, the GI50 (HOP-92 NSCLC) was 21.2 µM and the TGI (HOP-92 NSCLC) was 37.2 µM. The GI50 (CCRF-CEM leukemia) was 0.755 µM, the TGI (CCRF-CEM leukemia) was 31 µM and the GI50 (RPMI-8226 leukemia) was 19 µM. The TGI (RPMI-8226 leukemia) was 41.7 µM, the GI50 (UACC-62 melanoma) was 16 µM and the TGI (UACC-62 melanoma) was 30.3 µM. The GI50 (SF-539 CNS) was 18.8 µM, the TGI (SF-539 CNS) was 33.3 µM and the GI50 (NCI-H226 lung) was 15.6 µM. The TGI (NCI-H226 lung) was 31.3 µM.
